Test results: patent US20090233917A1, “Stroke recovery” (priority 2006, published 2009)

Experiments:
MCA occlusion in rats = assay: Functional recovery following MCA occlusion in rats, dose study (Examples 2, 3, 6); type: in vivo, Sprague Dawley Rats
Description: Fifty male Sprague Dawley Rats, each weighing 300-400 g, are operated under anesthesia to create MCA occlusion as described in Example 1, and are divided into 5 groups of 10 animals each. Each group is given arimocolomol, p.o., starting at one day after the occlusion at 25 mg/kg/d, 50 mg/kg/d, 100 mg/kg/d, or 200 mg/kg/d once daily for 35 days. One group is a control group with administration of the vehicle only.
Animals are evaluated pre-operation (day −1), then every 7 days after the operation (7, 14, 21, 28, and 35) by forelimb and hindlimb placing tests and body swing test, and given scores as described in Example 1.
On day 35 after MCAO, rats in the control group and the group with the highest dosage were sacrificed and their brains evaluated as in Example 1. The rats in other groups are sacrificed and the brains were removed and flash frozen for further analysis.

[1] = Cerebrospinal fluid (CSF) levels after oral administration in humans; type: in vivo, human; settings: 3 and 6 hours after oral administration, increasing doses
[2] = tested on: embolic middle cerebral artery occlusion (MCAO) in rats; assay: Functional recovery following embolic MCAO in rats (Example 13); type: in vivo, Wistar rats; settings: for foot fault test, compared to EPO treatment group: 10 h treatment group
Source text: The purpose of this study was to evaluate the efficacy of arimoclomol in enhancing neurological recovery in a model of embolic middle cerebral artery occlusion (MCAO) in rats (Zhang R L et al. Brain Research 766:83-92, 1997). The embolic MCAO model emulates the damage caused by an embolic stroke which is generally the result of ischemia associated damage or diseases. The embolic MCAO model also closely models the types of damage caused by a stroke because the occlusion is not permanent. Moreover, the embolus often undergoes spontaneous clot lysis and reperfusion within 24-48 hours post-stroke, which is similar to a subset of human stroke. Damage from a stroke can be brought about in two ways. […] Second, the resulting pressure from the initial surge in blood volume once the occlusion is cleared can also result in further neurological damage and damage to the effected blood vessel. This embolic stroke model provides guidance for the neurological recovery resulting from each of these phenomena.
Sixty male Wistar rats between 8-12 weeks of age were operated on to isolate the external carotid artery (ECA) and the internal carotid artery (ICA). A single clot was introduced into the ECA lumen through a PE-50 catheter (0.3 mm outer diameter) attached to a 100 μL Hamilton syringe filled with 0.9% saline via a small puncture. A 16 mm length of the PE-50 catheter was advanced from the ECA into the lumen of the ICA. Subsequently, the clot was injected into the ICA with 2-3 μL of 0.9% saline. The catheter was withdrawn and the right ECA ligated.
The rats were then randomly divided into 6 groups of 10 animals each. To the control group, phosphate buffered saline (PBS) was administered, p.o., starting at six hours after embolic stroke for 28 consecutive days. To the second group, Erythropoitein (EPO) was administered, i.p., starting at 24 hours after embolic stroke for 7 consecutive days (41.7 μg/kg/d). To the third group, arimoclomol was administered daily p.o. (200 mg/kg/d), starting 6 hours after embolic stroke for 28 consecutive days. To the fourth group, arimoclomol was administered daily p.o. (200 mg/kg/d), starting 10 hours after embolic stroke for 28 consecutive days. To the fifth group, arimoclomol was administered p.o. (200 mg/kg/d), starting 24 hours after embolic stroke for 28 consecutive days. To the sixth group, arimoclomol was administered p.o. (200 mg/kg/d), starting 48 hours after embolic stroke for 28 consecutive days.
Animals were evaluated at 1, 3, 7, 14, 21, and 28 days after initiation of embolic stroke by a modified neurological severity score (mNSS) and adhesive-removal and foot fault tests. These tests are widely accepted as standard tests indicative of functional recovery after a stroke. (Chen et al., Ann Neurol 53: 743-751, 2003; Wang et al., Stroke 35: 1732-1737, 2004; Zhang et al, Circulation 3486-3494, 2005).
For the modified neurological severity score (mNSS), the severity of injury was graded on a scale of 0 to 18. This score was determined via the evaluation of a variety of motor tests, sensory tests, balance beam tests and reflex tests as illustrated in Table II below. To determine the score resulting from these tests, one point was awarded for the inability to perform any of the tests or for the lack of a tested reflex. Accordingly, the higher the score, the more severe the injury. (Chen et al., Ann Neurol 53: 743-751, 2003; Wang et al., Stroke 35: 1732-1737, 2004; Zhang et al, Circulation 3486-3494, 2005).
For the adhesive removal test, the rats are trained prior to embolic stroke to remove strips of packing tape (5 cm). The training period constitutes of 3 sessions. Each session consists of 6 bilateral stimulation trials conducted over 2 days wherein the 5 cm strips of packing tape were placed firmly around both wrists of the animal so that they covered the hairless part of the forepaw. […]

[3] = 6 h, 10 h, and 24 h treatment groups, on and after the 14-day time point

[O-][n+]1cccc(/C(Cl)=N/OC[C@H](O)CN2CCCCC2)c1 [arimoclomol, N-[2-hydroxy-3-(1-piperidinyl)propoxy]-pyridine-1-oxide-3-carboximidoyl chloride]
behavioral scores compared to vehicle control group (MCA occlusion in rats; 25 mg/kg/day p.o. from one day after occlusion): no significant difference | behavioral scores (forelimb placement, hindlimb placement, body swing tests) (MCA occlusion in rats; 50, 100 and 200 mg/kg/day p.o. from one day after occlusion, 35 days): significant dose related improvement | changes in infarct volume (MCA occlusion in rats; day 35, highest dosage vs control): no changes | changes in body weight (MCA occlusion in rats; dose study, 35 days): no changes | effective doses in the stroke recovery model (MCA occlusion in rats; p.o. once daily): 50 to 200 mg/kg/day | maximum effective dose in the study (MCA occlusion in rats; p.o. once daily): 200 mg/kg/day | penetration of the human blood-brain barrier (CSF levels) [1]: penetrates the human blood-brain barrier | adhesive-removal test, recovery compared to control group ([2]; 200 mg/kg/d p.o., start 6 h, 10 h, 24 h and 48 h after embolic stroke, after the 14 day time point): significantly superior | foot fault test, recovery compared to control groups [2, 3]: significantly superior | mNSS test, recovery compared to control groups [2, 3]: significantly greater | infarct volume compared to control groups ([2]; 6 h and 10 h treatment groups, after 28 days of treatment): significantly lower percentage of infarct volume | foot fault test, compared to EPO treatment group ([2]; 21-day time point): significantly superior | foot fault test, compared to EPO treatment group ([2]; 28-day time point): slightly superior | adhesive-removal test, improvement percentage compared to control ([2]; day 28, each time group (6, 10, 24, 48 h)): greater than 25%
